Experimental data reported in patent publication US20200138744A1, “METHODS OF TREATING PANCREATIC CANCER USING COENZYME Q10” (Berg LLC, priority 2018, published 2020).

Assays:
[1] = system: metastatic pancreatic cancer; assay: Phase 2 clinical study, efficacy (RECIST 1.1, TTP, PFS, OS)
Procedure: Eligible patients (aged ≥18 y) were relapsed/refractory to standard treatment and met inclusion/exclusion criteria. […] Each received either two 72-hr infusions of 110 mg/kg IV Coenzyme Q10 alone (Monotherapy) or in combination with gemcitabine (Combination Therapy), per week. Tumor response was evaluated at week 10 and then every 8 weeks. Clinical assessments included investigator observations and patient reports. This study occurred in two parts: Part 1 of the study enrolled ten (10) patients in the Coenzyme Q10 (monotherapy arm) and ten (10) patients in the Coenzyme Q10 plus gemcitabine (combination therapy arm) with intent to enroll the additional 15 patients (Part 2) into the applicable treatment arm(s) based on RECIST v1.1 clinical response.
Patients with no prior gemcitabine treatments prior to screening for the study, or prior gemcitabine treatment >3 months prior to screening for the study were assigned to the combination therapy group. Patients with prior gemcitabine discontinued due to toxicity in prior treatment, patients unable to tolerate a dose of 800 mg/m^2 weekly at any point due to toxicity, and patients with prior gemcitabine treatment ≤3 months prior to screening for the study were assigned to the monotherapy group.
(§2) A Coenzyme Q10 Nanosuspension Injection (40 mg/mL) was administered IV over 144 hours. Each patient received 2 consecutive 72-hour infusions per week. Monotherapy arm patients received a Coenzyme Q10 dose of 110 mg/Kg only weekly. Patients in the combination therapy arm received a Coenzyme Q10 dose of 110 mg/Kg and gemcitabine IV once weekly (starting at week 3) at a starting dose of 1000 mg/m^2.
The primary objective of the study was to evaluate the Overall Response Rate (ORR) in patients treated with the combination of Coenzyme Q10 with gemcitabine or Coenzyme Q10 as a monotherapy. The secondary objectives were to evaluate Overall Survival (OS), Progression-Free Survival (PFS) overall and at around 10 weeks (equal to 2 cycles of treatment), Time to Progression (TTP), Tumor Response using Adaptive Molecular Responses (multi-omic molecular profiling), the toxicity profile of Coenzyme Q10 with gemcitabine and as monotherapy when given over 144-hour intravenous (IV) infusion in patients with advanced pancreatic cancer, changes in carbohydrate antigen (CA) 19-9 levels, and patient reported Quality of Life (QOL) using the validated FACT-HEP PRO.
The study described above in Example 1 was continued and additional patients were evaluated.

[2] = Phase I clinical trial; monotherapy and in combination with gemcitabine; IV
Excerpt: (§1) The composition comprising Coenzyme Q10 evaluated in this study is a ubidecarenone containing intravenous (IV) nanodispersion that switches cancer energy generation from glycolysis to mitochondrial oxidative phosphorylation to elicit an anticancer effect.

[3] = Phase 2 clinical study, adverse events / toxicity profile; settings: for Patients with an AE: safety population (31 patients), % of all 31
Procedure: Eligible patients (aged ≥18 y) were relapsed/refractory to standard treatment and met inclusion/exclusion criteria. […] Each received either two 72-hr infusions of 110 mg/kg IV Coenzyme Q10 alone (Monotherapy) or in combination with gemcitabine (Combination Therapy), per week. Tumor response was evaluated at week 10 and then every 8 weeks. Clinical assessments included investigator observations and patient reports.
as §2

[4] = system: pancreatic models; assay: Preclinical in vivo pancreatic models, survival; settings: IV administration, alone and in combination with gemcitabine
Excerpt: as §1

[5] = Example 1, overall current population
[6] = Example 1, preliminary, both arms
[7] = treatment-emergent, safety population

COC1=C(OC)C(=O)C(C/C=C(\C)CC/C=C(\C)CC/C=C(\C)CC/C=C(\C)CC/C=C(\C)CC/C=C(\C)CC/C=C(\C)CC/C=C(\C)CC/C=C(\C)CCC=C(C)C)=C(C)C1=O [Coenzyme Q10]
mean overall survival [1, 5]: 125 days | mean time to progression (TTP) [1, 5]: 68 days | median overall survival [1, 5]: 108 days | median time to progression (TTP) [1, 5]: 53 days | patients with SD <4 months [1, 6]: 4 | patients with SD >4 months [1, 6]: 3 | stable disease (SD) noted, number of patients by arm ([1]; Example 1, preliminary, of 13 evaluable patients): 1 | stable disease (SD) noted, number of patients ([1]; Example 1, preliminary, of 13 evaluable patients, both arms): 7 | best ORR of stable disease (SD), share of ATC population ([1]; Example 2, adequately treated cohort, n=9/18, with gemcitabine): 50% | median Progression-Free Survival (PFS) ([1]; Example 2, with gemcitabine, 95% CI 70-131, FIG. 4): 118 days | median time to progression (TTP) ([1]; Example 2, with gemcitabine, 95% CI 70-147, FIG. 3): 121 days | median Overall Survival (OS) ([1]; Example 2, with gemcitabine, 95% CI 131-228, FIG. 5): 218 days | correlation of time of Coenzyme Q10 exposure with time to progression ([1]; FIG. 1, monotherapy or combination therapy): positively correlated | correlation of time of Coenzyme Q10 exposure with overall survival ([1]; FIG. 2, monotherapy or combination therapy): positively correlated | Discontinuation from the study: Disease Progression ([1]; Overall to Date (N = 47)): 12 (25.5) N (%) | MTD [2]: 110 mg/kg | patients who experienced at least 1 AE ([3]; Example 1): All | INR increase, frequency of AE ([3]; Example 1, 31 treated patients): 48.4% | abdominal pain, frequency of AE ([3]; Example 1, 31 treated patients): 35.5% | fatigue, frequency of AE ([3]; Example 1, 31 treated patients): 38/7 | thrombocytopenia, frequency of AE ([3]; Example 1, 31 treated patients): 35.5% | tolerability ([3]; Example 1, Phase 2): well-tolerated | AEs considered definitely related to study drug ([3]; Example 1, number of AEs): 10 | AEs considered possibly related to study drug ([3]; Example 1, number of AEs): 19 | AEs considered probably related to study drug ([3]; Example 1, number of AEs): 14 | most common AE's ([3]; Example 2): GI related | tolerability ([3]; Example 2): well tolerated | Number of AEs [3, 7]: 347 | Subjects with any AE leading to study drug discontinuation [3, 7]: 4 (12.9) N (%) | Subjects with any Infusion reactions [3, 7]: 0 N (%) | Subjects with any Serious AE [3, 7]: 12 (38.7) N (%) | Subjects with any ≥Grade 3 AE [3, 7]: 31 (100) N (%) | Patients with an AE ([3]; treatment-emergent, listed as Coenzyme Q10-IV): 31 (100) N (%) | Patients with an AE ([3]; treatment-emergent, listed as Mono): 13 (41.9) N (%) | duration of survival outcomes [4]: significantly improved
